Results on 13 compounds are retold here after patent publication US9694016B2 (Novartis AG, priority 2013, dated 2017).

For the first experiment, the target named is b-Raf (V600E) (Homo sapiens (Human), UniProt P15056, V600E). The settings on record: read-out: b-Raf IC-50; AlphaScreen, 60 min pre-incubation, 3 hours reaction.
Sequence of b-Raf (V600E) (P15056 whole entry V600E): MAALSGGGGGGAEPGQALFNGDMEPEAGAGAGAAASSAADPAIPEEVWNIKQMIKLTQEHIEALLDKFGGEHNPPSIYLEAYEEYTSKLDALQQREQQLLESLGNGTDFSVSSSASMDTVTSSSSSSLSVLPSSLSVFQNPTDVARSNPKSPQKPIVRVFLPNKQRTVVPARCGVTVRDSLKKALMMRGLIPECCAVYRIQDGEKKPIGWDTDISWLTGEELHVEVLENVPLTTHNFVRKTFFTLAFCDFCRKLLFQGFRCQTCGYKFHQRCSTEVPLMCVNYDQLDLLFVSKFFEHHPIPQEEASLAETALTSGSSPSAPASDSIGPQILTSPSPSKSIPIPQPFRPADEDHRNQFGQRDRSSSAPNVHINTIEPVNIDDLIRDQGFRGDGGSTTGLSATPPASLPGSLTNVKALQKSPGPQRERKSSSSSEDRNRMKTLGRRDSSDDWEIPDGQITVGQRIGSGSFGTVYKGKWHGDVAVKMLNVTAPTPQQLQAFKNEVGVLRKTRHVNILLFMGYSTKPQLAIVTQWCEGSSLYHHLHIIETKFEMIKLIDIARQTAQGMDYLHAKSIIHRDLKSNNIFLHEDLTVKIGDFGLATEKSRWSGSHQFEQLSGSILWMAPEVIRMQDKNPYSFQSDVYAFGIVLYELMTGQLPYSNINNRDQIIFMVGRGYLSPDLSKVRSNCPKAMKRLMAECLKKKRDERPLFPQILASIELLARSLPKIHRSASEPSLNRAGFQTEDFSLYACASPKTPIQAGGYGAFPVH
Consider `CCNc1nc(-c2cc(NC(=O)c3cc(C(F)(F)F)c(=O)n(CC)c3)ccc2C)cc(N2CCOCC2)n1` [Example 703, 1-ethyl-N-(3-(2-(ethylamino)-6-morpholinopyrimidin-4-yl)-4-methylphenyl)-6-oxo-5-(trifluoromethyl)-1,6-dihydropyridine-3-carboxamide], for which the IC50 stood at 1.3 nM.

In the case of `Cc1ccc(NC(=O)c2cccc(-c3nnco3)c2)cc1-c1cc(N2CCOCC2)c(=O)n(C)n1` [Example 639, N-(4-methyl-3-(1-methyl-5-morpholino-6-oxo-1,6-dihydropyridazin-3-yl)phenyl)-3-(1,3,4-oxadiazol-2-yl)benzamide], the IC50 turned out to be 7.3 nM.

Take `Cc1ccc(NC(=O)c2ccnc(C(C)(F)F)c2)cc1-c1cc(N2CCOCC2)c2nccn2n1` [Example 843, 2-(1,1-difluoroethyl)-N-(4-methyl-3-(8-morpholinoimidazo[1,2-b]pyridazin-6-yl)phenyl)isonicotinamide]: the IC50 is 0.8 nM.

For `Cc1ccc(C(=O)Nc2cccc(C(C)C)c2)cc1-c1cc(N2CCOCC2)c(=O)n(C)c1` [Example 436, N-(3-isopropylphenyl)-4-methyl-3-(1-methyl-5-morpholino-6-oxo-1,6-dihydropyridin-3-yl)benzamide], the IC50 amounted to 3.8 nM.

Take `Cc1ccc(NC(=O)c2ccnc(C(C)(C)C#N)c2)cc1-c1cc(N2CCOCC2)n(C)c(=O)c1` [Example 487, 2-(2-cyanopropan-2-yl)-N-(4-methyl-3-(1-methyl-6-morpholino-2-oxo-1,2-dihydropyridin-4-yl)phenyl)isonicotinamide]: the IC50 was determined as 2.8 nM.

On to `CCNc1nc(-c2cc(NC(=O)c3ccnc(C4COC4)c3)ccc2C)cc(N2CCOCC2)n1` [Example 707, N-(3-(2-(ethylamino)-6-morpholinopyrimidin-4-yl)-4-methylphenyl)-2-(oxetan-3-yl)isonicotinamide], for which the IC50 was determined as 1.9 nM.

The experiment is the same for the next values; noted with them: read-out: b-Raf IC-50; AlphaScreen, 60 min pre-incubation, reaction 3 hours at room temperature.
Turning to `Cc1ccc(C(=O)Nc2cccc(C(F)(F)F)c2)cc1-c1nc2c(c(N3CCOCC3)n1)CNC2` [Example 889, 4-methyl-3-(4-morpholino-6,7-dihydro-5H-pyrrolo[3,4-d]pyrimidin-2-yl)-N-(3-(trifluoromethyl)phenyl)benzamide], the IC50 stood at 3.3 nM.

With `Cc1ccc(NC(=O)c2ccnc(C(F)(F)F)c2)cc1-c1cc(N2CCOCC2)nc(N2CCOCC2)c1` [Example 1112, N-(3-(2,6-dimorpholinopyridin-4-yl)-4-methylphenyl)-2-(trifluoromethyl)isonicotinamide], the IC50 is 0.83 nM.

As to `Cc1ccc(NC(=O)c2ccnc(C3CC3)c2)cc1-c1cc(OCCO)nc(N2CCOCC2)c1` [Example 1157, 2-cyclopropyl-N-(3-(2-(2-hydroxyethoxy)-6-morpholinopyridin-4-yl)-4-methylphenyl)isonicotinamide], the IC50 was determined as 0.43 nM.

Take `Cc1ccc(NC(=O)c2cccc(C(F)F)c2)cc1-c1cc(N2CCOCC2)nc(N2CC(O)C2)c1` [Example 1077, 3-(difluoromethyl)-N-(3-(2-(3-hydroxyazetidin-1-yl)-6-morpholinopyridin-4-yl)-4-methylphenyl)benzamide]: the IC50 turned out to be 0.85 nM.

Take `Cc1ncc(NC(=O)c2cccc(C(F)(F)F)c2)cc1-c1cnc(N(C)CCO)c(N2CCOCC2)c1` [Example 986, N-(6′-((2-hydroxyethyl)(methyl)amino)-2-methyl-5′-morpholino-[3,3′-bipyridin]-5-yl)-3-(trifluoromethyl)benzamide]: the IC50 worked out at 0.83 nM.

Staying with this experiment, now noted: read-out: b-Raf IC-50; Table 2; AlphaScreen, 3 hours reaction.
Take `CCOc1ncc(-c2cc(NC(=O)c3cc(N4CCN(CC)CC4)cc(C(F)(F)F)c3)cnc2C)cc1N1CCOCC1` [Example 257, N-(6′-ethoxy-2-methyl-5′-morpholino-[3,3′-bipyridin]-5-yl)-3-(4-ethylpiperazin-1-yl)-5-(trifluoromethyl)benzamide]: the IC50 worked out at 10 nM.

For `CCOc1ncc(-c2cc(NC(=O)c3cnnc(C(C)(C)C#N)c3)cnc2C)cc1N1CCOC[C@H]1C` [Example 303, (R)-6-(2-cyanopropan-2-yl)-N-(6′-ethoxy-2-methyl-5′-(3-methylmorpholino)-[3,3′-bipyridin]-5-yl)pyridazine-4-carboxamide], the IC50 was 100 nM.
